Drawing on ChEMBL document CHEMBL1154198, “Chemical genetics of Plasmodium falciparum” (Nature, 2010), this text covers EC50 for 69 compounds.

pEC50: −log10 of the molar value.

In assay [1] the test system is Plasmodium falciparum. The experiment in a line: ST_JUDE: Plasmodium falciparum 3D7 EC50 (uM) as measured by SYBR green dye. It counts as functional, organism-based.
In assay [2] the test system is Plasmodium falciparum. The experiment in a line: ST_JUDE: Plasmodium falciparum K1 EC50 (uM) as measured by SYBR green dye. It counts as functional, organism-based.

Take `COc1ccccc1Cn1ccnc1SCC(=O)Nc1cccc(C(F)(F)F)c1`: the pEC50 in assay [1] was 5.83; in assay [2], 5.80.
Regarding `CCOc1cc(C2CC(=O)NC3=C2C(=O)CC(c2ccc(OC)c(OC)c2)C3)ccc1O` (stereo not drawn), the results for the negative logarithm of the EC50 (pEC50) in assay [1] and in assay [2] were 5.63 and 6.18, respectively.
Take `COc1ccc(OC)c(NC(=O)C2c3ccccc3C(=O)N(CC(C)C)C2c2cccs2)c1` (stereo not drawn): the pEC50 in assay [1] is 6.30; in assay [2], 6.21.
For `Cc1cccc(-n2ccnc2SCC(=O)Nc2cc(C(F)(F)F)ccc2Cl)c1`, in that order: under 4.82 and under 4.82.
For `CCOc1ccc(NC(=O)c2sc3nc4n(c(=O)c3c2C)CCC4)cc1` the same measures were under 4.82 and under 4.82.
For `COc1ccc(S(=O)(=O)NC2=C/C(=N\c3ccc(NC(C)=O)cc3)C(=O)c3ccccc32)cc1` the same measures were 5.24 and 5.54.
As for `CCCCc1ccc(OCC(=O)N/N=C/c2cccc(OC)c2)cc1`, the pEC50 in assay [1] and in assay [2] was under 4.82 in each case.
Consider `O=C(Nc1cccc(C(F)(F)F)c1)c1cc(Cl)ccc1O`, for which the pEC50 in assay [1] is 6.01; in assay [2], 5.92.
For `COc1ccc(C(=O)C2CCCN(Cc3ccc(OCCO)cc3)C2)cc1OC` (stereo not drawn), in that order: under 4.82 and under 4.82.
For `CCCNC(=O)C1CN1Cc1ccc(OC)cc1` (stereo not drawn), in that order: 5.17 and 5.16.
For `CC(=O)N(C1=C(N(C)C)C(=O)c2ccccc2C1=O)c1ccc(I)cc1` the same measures were 7.50 and 7.34.
Take `Cc1ccc(OCCCOc2cccc3ccc(C)nc23)c([N+](=O)[O-])c1`: the pEC50 in assay [1] and in assay [2] was under 4.82 throughout.
For `CCOC(=O)c1oc2c(c1C)-c1nn(Cc3ccc(C)cc3)cc1CC2`, the pEC50 in assay [1] is 5.50; in assay [2] it was 5.66.
For the compound `CO/C(O)=C1\C(C)=NC2=C(C(=O)CC(c3ccccc3OC)C2)C1c1ccc([N+](=O)[O-])cc1` (stereo not drawn), the pEC50 in assay [1] is 5.42; in assay [2] it was under 4.82.
For `COC(=O)c1ccccc1NC(=O)c1ccc(Cn2cc(Cl)cn2)cc1`, in that order: under 4.82 and under 4.82.
Consider `O=C1C(NC2CCCCC2)=C(N2CCCCC2)C(=O)c2ccccc21`, for which the pEC50 in assay [1] is 7.72; in assay [2], 7.61.
For `CN1CCN(c2nc(Nc3ccc(F)cc3)c3cnn(-c4ccccc4)c3n2)CC1` the same measures were 5.83 and 5.37.
For `CCCCCCn1c(=N)n(CC(O)COc2cccc(C)c2)c2ccccc21` (stereo not drawn), in that order: 5.71 and 6.14.
For `CC/C(=C\c1sc2ccc(OC)cc2[n+]1CC)SC`, in that order: 5.88 and under 4.82.
With `CCOC(=O)c1ccc(NC(=O)CSc2nn3c(=O)c(C)nnc3s2)cc1`, the negative-log EC50 (pEC50) in assay [1] and in assay [2] was under 4.82 each time.
Take `Cc1sc(NC(=O)c2cc(-c3ccccn3)nc3ccc(Cl)cc23)c(C(N)=O)c1C`: the pEC50 in assay [1] and in assay [2] was under 4.82 each time.
Take `CCn1c2ccccc2c2cc(CN3CCN(Cc4cc(OC)ccc4O)CC3)ccc21`: the pEC50 in assay [1] is 5.55; in assay [2] it was 5.91.
As for `CC(C)N1CCN(Cc2ccc(C#CC(C)(C)O)cc2)CC1CCO` (stereo not drawn), the negative logarithm of the EC50 (pEC50) in assay [1] and in assay [2] was under 4.82 each time.
For `CC(C)OCc1cc(CN2CCN(c3cccc(Cl)c3)CC2)c(O)c2ncccc12`, the results for the pEC50 in assay [1] and in assay [2] were 6.03 and 6.09, respectively.
`COc1ccc(Nc2cc(C)nc(Nc3ccc(NS(=O)(=O)c4ccc(F)cc4)cc3)n2)cc1`: the pEC50 was 5.81 in assay [1] and under 4.82 in assay [2].
For the compound `COC(=O)c1c(S(=O)(=O)N2CCCC2)sc2c1CCN(Cc1c[nH]nc1-c1ccccc1)C2`, the negative logarithm of the EC50 (pEC50) in assay [1] and in assay [2] was under 4.82 throughout.
Consider `O=C1C(Nc2cccc(C(F)(F)F)c2)=C(N2CCCCC2)C(=O)c2ccccc21`, for which the negative logarithm of the EC50 (pEC50) in assay [1] is 6.07; in assay [2], 5.83.
For `Oc1c(C(Nc2ccccn2)c2cccc(Cl)c2)cc(Cl)c2cccnc12` (stereo not drawn) the same measures were 5.12 and 5.33.
For `O=C(Cc1ccc(Cl)cc1)Nc1cc(C(F)(F)F)cc(C(F)(F)F)c1`, in that order: under 4.82 and 5.29.
For `COc1ccc(N2CCN(C3CCCN(Cc4cccc(SC)c4)C3)CC2)cc1` (stereo not drawn), in that order: under 4.82 and under 4.82.
With `COc1cc(Cl)c(NC(=O)c2cc3ccccc3cc2O)c(OC)c1`, the pEC50 in assay [1] and in assay [2] was under 4.82 in each case.
Consider `CSc1cccc(NC(=O)C2c3ccccc3C(=O)N(C3CCCC3)C2c2cccs2)c1` (stereo not drawn), for which the figures for the pEC50 in assay [1] and in assay [2] were 6.24 and 6.02, respectively.
Take `CCCO/C(O)=C1\C(C)=NC2=C(C(=O)CC(c3ccccc3OC)C2)C1c1ccc(OC)c(OC)c1` (stereo not drawn): the results for the pEC50 in assay [1] and in assay [2] were 5.41 and 5.42, respectively.
For `O=[N+]([O-])c1ccc(O)c(/N=C/C=C(\O)c2ccc(Cl)c(Cl)c2)c1`, in that order: under 4.82 and 5.78.
`CCN(CC)c1ccc(/C=C/C(=O)NCCN2CCC(N(C)C3CCCCC3C)CC2)cc1` (stereo not drawn): the pEC50 is 5.64 in assay [1] and under 4.82 in assay [2].
For `COc1ccc(-c2nn(C)c3sc(C(=O)Nc4cccc(SC)c4)cc23)cc1OC`, in that order: under 4.82 and 5.28.
For `CCN1CCN(c2cc(C)c3cc(NC(=S)N4CCC(N5CCCCC5)CC4)ccc3n2)CC1` the same measures were 5.23 and 5.10.
For `CSc1cccc(NC(=O)C2c3ccccc3C(=O)N(CC(C)C)C2c2cccs2)c1` (stereo not drawn), the pEC50 in assay [1] was 6.89; in assay [2] it was 6.70.
`CCN(CC)c1cc(C)c2cc(NC(=O)c3ccc(OC)c(OC)c3)ccc2n1`: the negative-log EC50 (pEC50) in assay [1] was 5.64; in assay [2], under 4.82.
For `COc1ccc2nc(N(Cc3cccnc3)C(=O)c3cccc(Cl)c3)sc2c1` the same measures were under 4.82 and under 4.82.
As for `Oc1c(C(Nc2ccccn2)c2ccccc2Br)cc(Cl)c2cccnc12` (stereo not drawn), the pEC50 in assay [1] is 5.67; in assay [2], under 4.82.
For `COc1ccc2sc(N(Cc3cccnc3)C(=O)c3ccc(Cl)cc3)nc2c1` the same measures were under 4.82 and under 4.82.
For `COCC(C)Oc1cccc(CN(Cc2ccncc2)C(=O)/C=C/c2cccc(F)c2)c1` (stereo not drawn), in that order: 5.38 and under 4.82.
Consider `Oc1cccnc1NC(c1ccc(Cl)cc1)c1ccc2cccnc2c1O` (stereo not drawn), for which the pEC50 was 5.42 in assay [1] and 5.25 in assay [2].
For `Cc1nc2ccc(/N=C/c3ccc(N(C)C)cc3)cc2s1` the same measures were under 4.82 and under 4.82.
For `CC1Cc2nc(SCC(=O)Nc3cccc(F)c3)n(C)c(=O)c2S1` (stereo not drawn) the same measures were 5.79 and 5.68.
Turning to `COc1ccc2nc(C)cc(Nc3ccc(N4CCOCC4)cc3)c2c1`, the negative-log EC50 (pEC50) is 5.33 in assay [1] and under 4.82 in assay [2].
For `CCOC(=O)C1=C(C)N=c2s/c(=C\c3ccc(O)c(OC)c3)c(=O)n2C1c1ccc(F)cc1` (stereo not drawn) the same measures were under 4.82 and 5.65.
For `Oc1c(CN2CCN(c3ccccc3F)CC2)cc(Br)c2cccnc12`, in that order: 5.42 and 5.46.
For `CO/C(O)=C1\C(C)=NC2=C(C(=O)CC(c3ccccc3OC)C2)C1c1cccs1` (stereo not drawn) the same measures were 5.41 and 5.76.
`Cc1ccc(S(=O)(=O)Oc2ccc(/C=N/N=C(N)N)cc2)cc1`: the figures for the pEC50 in assay [1] and in assay [2] were 5.93 and under 4.82, respectively.
For `Fc1ccc(-c2nc3ncccn3c2Nc2cccc(C(F)(F)F)c2)cc1`, in that order: 6.04 and 5.91.
For `Cc1cccc(/C=C2/Sc3ccc(C(=O)NCCN4CCN(c5cc(Cl)ccc5C)CC4)cc3N(C)C2=O)c1` the same measures were 6.01 and 6.02.
For `COc1ccccc1N1CCN(C(CNS(=O)(=O)c2ccc(Cl)cc2)c2cccnc2)CC1` (stereo not drawn), in that order: under 4.82 and 5.33.
With `O=C1C(Nc2cccc(Br)c2)=C(N2CCCCC2)C(=O)c2ccccc21`, the pEC50 in assay [1] is 6.34; in assay [2], 5.94.
For `CCOc1ccc(Nc2c3ccccc3nc3ccccc23)cc1` the same measures were 5.24 and 5.72.
For `CC1=C(C)CC2C(=O)C3=C(C(=O)C2C1)C1c2ccccc2C3c2ccccc21` (stereo not drawn), in that order: 5.50 and 5.79.
As for `Cc1ccc(Oc2nc(-c3ccncc3)nc3ccccc23)cc1`, the pEC50 in assay [1] is 5.46; in assay [2], 5.65.
For `Cc1cccc2sc(N(Cc3cccnc3)C(=O)C3CCCCC3)nc12`, in that order: 5.46 and 5.62.
Turning to `CC1CCCCN1CCCNC(=O)c1ccc2c(c1)sc1nc(-c3ccc(F)cc3)cn12` (stereo not drawn), the values for the pEC50 in assay [1] and in assay [2] were 6.20 and 5.80, respectively.
With `COC(=O)Oc1ccc2c(=O)c(Oc3ccc4ccccc4c3)c(C(F)(F)F)oc2c1`, the pEC50 in assay [1] and in assay [2] was under 4.82 in each case.
For the compound `CCCc1cc(O)nc(-n2nc(C)cc2NC(=O)c2ccc(Cl)cc2)n1`, the pEC50 in assay [1] and in assay [2] was under 4.82 throughout.
For the compound `O=C(Nc1ccc(Cl)cc1C(O)c1ccccc1)c1cnn2c1NC(c1ccccc1)CC2C(F)(F)F` (stereo not drawn), the negative-log EC50 (pEC50) in assay [1] was 6.12; in assay [2], 6.30.
For the compound `CCC(=O)N1c2ccc(S(=O)(=O)CCC(=O)Nc3ccc(Br)c(C)c3)cc2CC1C` (stereo not drawn), the negative logarithm of the EC50 (pEC50) in assay [1] and in assay [2] was under 4.82 in each case.
In the case of `C=CCn1c(SCC(=O)Nc2ccccc2OC)nc2sc(C)cc2c1=O`, the negative logarithm of the EC50 (pEC50) in assay [1] was 6.14; in assay [2], 5.40.
For `CCCCOc1ccc(S(=O)(=O)Nc2ccc(Nc3nc(C)cc(N4CCCC4)n3)cc2)cc1`, in that order: 5.85 and under 4.82.
Turning to `Cc1cccc2sc(N(Cc3cccnc3)C(=O)c3ccco3)nc12`, the pEC50 in assay [1] is 5.17; in assay [2], 5.27.
For `CC(=O)N(C1=C(N(C)C)C(=O)c2ccccc2C1=O)c1ccc(C(=O)O)cc1`, in that order: 5.89 and 5.72.
For `Cn1c(-c2ccccc2[N+](=O)[O-])[n+](C)c2ccccc21`, the negative-log EC50 (pEC50) in assay [1] is 5.13; in assay [2], under 4.82.

Usually pEC50 stands for the negative decadic logarithm of the EC50, by convention in mol/L. The low end stands for a high EC50, the high end for a low EC50.
